We go through 1 substance from patent publication US20200071699A1, “TREATMENT OF ALZHEIMERS DISEASE WITH MICRO RNA AND GHRELIN” (priority 2018, published 2020).

Ends that are not written are not given here. * marks the point of attachment. Octanoyl = CCCCCCCC(=O)*

For one assay, the system named is Aβ plaque. The following applies: 5×FAD mice with ghrelin treatment; cited from earlier work.
Assay [1] deals with 5 capillary miRNAs (miR-126, miR-145, miR-195, miR-21, miR-29b). Nature of the assay: qPCR of 5 capillary miRNAs after ghrelin administration. It counts as in vivo, mouse. The settings on record: 9 months 3×Tg mice; ghrelin 600 μg/kg per day, every 2 days for 2 weeks S.C. vs saline. An excerpt: (§1) Triple transgenic mice, 3×Tg-AD, containing three mutations ([…], APP Swedish and MAPT P301L), are widely used as an animal model of FAD. Age and gender-matched B6129SF2/J strain were used as the wild type (WT) control. Mice were obtained from the Jackson Laboratory and bred in our research institute's animal facility. Mice were housed in plastic cages on a 12 hr/12 hr light/dark cycle with ad libitum access to water and standard rodent diet. Animal usage was approved by California Medical Innovations Institute (CalMI2) Institutional Animal Care and Use Committee (IACUC). The genotyping was conducted in CalMI2 animal facilities at the age of 21 days by tail DNA extraction according to our previous protocol and the online information supplied by the vendor. […]
Total RNA was purified with Trizol reagent (Invitrogen), according to the manufacturer's instructions. To quantify miR-126-3p (MIMAT0000138), miR-145-5p (MIMAT0000157), miR-195-5p (MIMAT0000225), miR-21-5p (MIMAT0000530) and miR-29b-3p (MIMAT0000127), reverse transcription and quantitative PCR (qPCR) were performed using the TaqMan@ microRNA assay kit (Applied Biosystems) as previously described. […] Relative gene expression levels between wild type and 3×Tg-AD mice were determined using the comparative Ct (2^−ΔΔCt) method after normalizing to U6. […]
In general terms: In qPCR the cycle at which signal appears reflects the starting amount.

The subject of a further assay is miR-126. Nature of the assay: qPCR of capillary miR-126 after ghrelin administration. The class given is in vivo, mouse. The settings on record: 3×Tg-AD mice aged 9 months; ghrelin s.c. vs saline; P<0.05.
Description: as §1
(§2) Total RNA was purified with Trizol reagent (Invitrogen), according to the manufacturer's instructions. To quantify miR-126-3p (MIMAT0000138), miR-145-5p (MIMAT0000157), miR-195-5p (MIMAT0000225), miR-21-5p (MIMAT0000530) and miR-29b-3p (MIMAT0000127), reverse transcription and quantitative PCR (qPCR) were performed using the TaqMan@ microRNA assay kit (Applied Biosystems) as previously described. […] Relative gene expression levels between wild type and 3×Tg-AD mice were determined using the comparative Ct (2^−ΔΔCt) method after normalizing to U6.

The subject of assay [2] is pericytes coverage of capillaries. Nature of the assay: Pericyte coverage of isolated capillaries after ghrelin administration. The class given is in vivo, mouse. The settings on record: 3×Tg-AD mice aged 9 months; ghrelin s.c. per day every 2 days for 2 weeks vs vehicle (saline); P<0.001.
Description: as §1
(§3) The isolated microvessel fragments were smeared onto Superfrost Plus pre-cleaned glass microscope slides and fixed using ICC Fixation Buffer (BD Pharmingen) for 15 min at room temperature (RT). […] For coverage analysis, the percentage of PDGFRβ-positive pericyte area covering lectin-positive capillary area was quantified using Image J Area analysis as described previously. For the expression analysis of Aβ transporters, the area of LRP1, RAGE and Mdr1-occupied endothelium were measured as an area percentage normalized by the total area of lectin-positive capillaries using Image J Area measurement tool. […]

The next assay deals with RAGE. Nature of the assay: Expression of Aβ transporters in isolated capillaries after ghrelin (immunofluorescence). The class given is in vivo, mouse. The settings on record: 3×Tg-AD mice aged 9 months; ghrelin vs saline-injected group.
Description: as §1, §3

The next assay relates to miR-145. In words: qPCR of capillary miR-145 after ghrelin administration. The class given is in vivo, mouse. The settings on record: 3×Tg-AD mice aged 9 months; ghrelin s.c. vs saline; P<0.05.
Description: as §1, §2

The test system of a further assay is Aβ oligomers. In words: Aβ oligomers (ELISA, immunoblot) in microvessel-depleted cortex and hippocampus after ghrelin. It counts as in vivo, mouse.
Description: as §1, with “vendor. Ten mice per strain (3×Tg-AD, B6129SF2/J) at the ages of 6, 9, and 12 months were used in this study.” for “vendor.”
The method has been described previously. […] After centrifugation at 12,000 rpm for 20 min, protein content was determined by Bradford assay. […]
Human Aβ oligomers were analyzed in the microvessel-depleted cortex and hippocampal supernatant by enzyme-linked immunosorbent assay (ELISA; IBL International, Germany) according to manufacturer's instructions. […]
For orientation: An ELISA detects its analyte on a solid surface through an enzyme-linked reagent.

On to “n-octanoylated ghrelin (GSS(Octanoyl)FLSPEHQRVQQRKESKKPPAKLQPR; UniProt Q9UBU3 24-51, looked up) [neuropeptide "hunger hormone" generated from ghrelinergic cells of the gastrointestinal tract; n-octanoylated ghrelin from AnaSpec]”, for which, in the assay with Aβ plaque, the Aβ plaque burden result is “no significant diminishment”. In addition, the “expression levels of all 5 capillary miRNAs in hippocampus and cerebral cortex” value in assay [1] is listed as “significant increase”. Moreover, the “expression level of capillary miR126 from hippocampus and cerebral cortex” value with miR-126 is “significant increase”. Besides, the “percentage of pericyte coverage” value in assay [2] is recorded as “increased significantly”. Moreover, the “decline of relative expression of RAGE in isolated capillaries” value in the assay on RAGE was around 10%. Also, the “expression level of capillary miR-145 from hippocampus and cerebral cortex” value with miR-145 was “significant increase”. For the same substance, the “level of Aβ oligomers” value in the assay with Aβ oligomers (3×Tg-AD mice aged 9 months, ghrelin vs vehicle, ELISA and immunoblot, vessels-depleted hippocampus and cortex, P<0.05) was “significantly lower level”. The “Aβ levels (both APP and Aβ oligomers)” value with Aβ oligomers (9 months 3×Tg mice, ghrelin 600 μg/kg per day, every 2 days for 2 weeks S.C. vs saline, 6E10 and A11 antibodies) is reported as “significantly lower”.
